Experimental data from ChEMBL document CHEMBL5316381, “Discovery of [1,2,3]Triazolo[4,5-c]quinoline Derivatives as a New Class of Ataxia-Telangiectasia Mutated Kinase Inhibitors” (ACS Med Chem Lett, 2023).
pIC50: −log10 of the molar value. Values belong to the compound of their own block, whether it stands above or below them. Active and inactive are the calls of the source. No cut-off for these calls is given here.

Tests used:
[1] = target: T1, Serine-protein kinase ATM (Homo sapiens, UniProt Q13315); assay: Inhibition of ATM (unknown origin) using GST-cMyc-p53 as substrate incubated for 30 mins in presence of Mg/ATP mix by HTRF-based analysis
T1 sequence (Q13315 whole entry): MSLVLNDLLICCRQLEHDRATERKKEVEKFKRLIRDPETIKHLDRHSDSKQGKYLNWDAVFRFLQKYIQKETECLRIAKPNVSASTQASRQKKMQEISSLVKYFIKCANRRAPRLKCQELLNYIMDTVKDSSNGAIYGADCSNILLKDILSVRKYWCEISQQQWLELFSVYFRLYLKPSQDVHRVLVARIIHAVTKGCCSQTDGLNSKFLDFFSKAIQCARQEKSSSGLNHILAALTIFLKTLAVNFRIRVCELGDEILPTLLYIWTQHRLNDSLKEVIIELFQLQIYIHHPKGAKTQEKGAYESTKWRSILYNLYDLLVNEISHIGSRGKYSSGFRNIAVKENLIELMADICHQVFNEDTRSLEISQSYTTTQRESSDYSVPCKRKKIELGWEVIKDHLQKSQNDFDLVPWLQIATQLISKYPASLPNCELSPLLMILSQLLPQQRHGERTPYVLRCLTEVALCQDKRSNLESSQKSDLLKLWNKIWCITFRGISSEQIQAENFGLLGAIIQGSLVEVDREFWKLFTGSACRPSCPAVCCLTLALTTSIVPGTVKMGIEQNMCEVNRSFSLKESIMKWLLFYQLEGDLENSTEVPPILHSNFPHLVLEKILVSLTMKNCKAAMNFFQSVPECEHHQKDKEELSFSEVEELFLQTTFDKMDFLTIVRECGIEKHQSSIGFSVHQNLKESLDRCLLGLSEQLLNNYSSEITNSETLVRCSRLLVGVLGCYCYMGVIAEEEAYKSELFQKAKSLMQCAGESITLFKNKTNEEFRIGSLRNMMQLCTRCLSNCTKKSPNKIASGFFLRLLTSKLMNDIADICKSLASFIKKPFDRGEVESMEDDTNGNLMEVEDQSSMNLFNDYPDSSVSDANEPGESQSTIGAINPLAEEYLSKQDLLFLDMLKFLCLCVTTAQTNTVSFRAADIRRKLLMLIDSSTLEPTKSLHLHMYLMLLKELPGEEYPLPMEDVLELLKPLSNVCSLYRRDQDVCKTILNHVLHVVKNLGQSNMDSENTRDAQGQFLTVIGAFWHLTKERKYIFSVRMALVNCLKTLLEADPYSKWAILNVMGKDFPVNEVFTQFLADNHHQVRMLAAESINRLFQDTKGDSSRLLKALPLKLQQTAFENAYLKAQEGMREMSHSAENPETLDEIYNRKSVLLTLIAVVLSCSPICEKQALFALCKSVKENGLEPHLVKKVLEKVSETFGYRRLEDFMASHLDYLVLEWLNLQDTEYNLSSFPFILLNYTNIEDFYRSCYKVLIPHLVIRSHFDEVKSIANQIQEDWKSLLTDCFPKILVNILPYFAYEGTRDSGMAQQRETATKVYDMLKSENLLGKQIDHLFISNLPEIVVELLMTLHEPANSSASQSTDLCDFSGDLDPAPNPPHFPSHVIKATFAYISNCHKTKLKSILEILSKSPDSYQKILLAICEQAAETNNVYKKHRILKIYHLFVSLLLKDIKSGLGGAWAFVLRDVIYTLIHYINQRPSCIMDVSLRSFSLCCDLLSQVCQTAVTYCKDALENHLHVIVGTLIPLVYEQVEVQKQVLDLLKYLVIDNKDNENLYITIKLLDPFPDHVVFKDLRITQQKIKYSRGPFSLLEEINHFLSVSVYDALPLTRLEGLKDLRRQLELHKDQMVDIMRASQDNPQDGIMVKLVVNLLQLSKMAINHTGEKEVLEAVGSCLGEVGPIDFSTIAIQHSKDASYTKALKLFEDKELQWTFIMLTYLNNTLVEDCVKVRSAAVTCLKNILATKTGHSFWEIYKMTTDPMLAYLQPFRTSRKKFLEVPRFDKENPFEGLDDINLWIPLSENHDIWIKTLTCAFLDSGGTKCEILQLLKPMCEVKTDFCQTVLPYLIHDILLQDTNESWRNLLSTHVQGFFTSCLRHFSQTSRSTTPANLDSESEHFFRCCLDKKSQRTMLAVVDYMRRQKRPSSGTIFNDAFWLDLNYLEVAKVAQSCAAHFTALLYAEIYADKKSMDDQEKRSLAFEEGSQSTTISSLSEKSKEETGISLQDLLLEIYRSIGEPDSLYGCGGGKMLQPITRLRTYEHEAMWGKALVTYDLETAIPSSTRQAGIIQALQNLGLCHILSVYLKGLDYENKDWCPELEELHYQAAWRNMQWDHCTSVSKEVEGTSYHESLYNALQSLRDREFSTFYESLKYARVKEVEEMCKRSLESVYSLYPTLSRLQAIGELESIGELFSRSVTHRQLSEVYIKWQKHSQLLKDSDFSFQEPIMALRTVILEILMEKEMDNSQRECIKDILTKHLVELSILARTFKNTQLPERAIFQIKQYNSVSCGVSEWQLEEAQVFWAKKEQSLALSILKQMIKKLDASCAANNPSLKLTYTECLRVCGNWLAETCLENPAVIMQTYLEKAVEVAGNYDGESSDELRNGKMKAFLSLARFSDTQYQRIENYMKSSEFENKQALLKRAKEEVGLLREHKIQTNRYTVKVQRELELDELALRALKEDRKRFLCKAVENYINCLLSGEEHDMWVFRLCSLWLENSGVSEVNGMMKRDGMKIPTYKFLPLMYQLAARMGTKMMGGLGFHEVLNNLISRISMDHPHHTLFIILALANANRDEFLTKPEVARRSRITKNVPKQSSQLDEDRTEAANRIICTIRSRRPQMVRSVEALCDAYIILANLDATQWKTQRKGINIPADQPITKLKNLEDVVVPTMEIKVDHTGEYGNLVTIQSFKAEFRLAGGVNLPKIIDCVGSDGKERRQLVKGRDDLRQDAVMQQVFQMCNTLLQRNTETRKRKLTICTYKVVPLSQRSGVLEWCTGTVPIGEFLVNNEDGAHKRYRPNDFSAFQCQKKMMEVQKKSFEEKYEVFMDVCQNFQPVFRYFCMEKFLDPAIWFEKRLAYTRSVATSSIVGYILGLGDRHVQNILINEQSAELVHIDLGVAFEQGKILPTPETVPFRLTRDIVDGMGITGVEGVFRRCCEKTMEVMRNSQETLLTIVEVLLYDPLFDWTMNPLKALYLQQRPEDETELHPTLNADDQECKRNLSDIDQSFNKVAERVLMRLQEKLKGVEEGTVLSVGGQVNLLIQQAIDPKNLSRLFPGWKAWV

[2] = target: Serine/threonine-protein kinase Chk2 (Homo sapiens) (UniProt O96017); assay: Inhibition of CPT-11 induced Chk2 phosphorylation in human SW620 cells assessed as fold change in phosphorylated chk2 protein level at 10 nM by SDS-PAGE based Western blot analysis relative to control; assay type: cell-based
Chain of Serine/threonine-protein kinase Chk2 (Homo sapiens) (O96017 whole entry): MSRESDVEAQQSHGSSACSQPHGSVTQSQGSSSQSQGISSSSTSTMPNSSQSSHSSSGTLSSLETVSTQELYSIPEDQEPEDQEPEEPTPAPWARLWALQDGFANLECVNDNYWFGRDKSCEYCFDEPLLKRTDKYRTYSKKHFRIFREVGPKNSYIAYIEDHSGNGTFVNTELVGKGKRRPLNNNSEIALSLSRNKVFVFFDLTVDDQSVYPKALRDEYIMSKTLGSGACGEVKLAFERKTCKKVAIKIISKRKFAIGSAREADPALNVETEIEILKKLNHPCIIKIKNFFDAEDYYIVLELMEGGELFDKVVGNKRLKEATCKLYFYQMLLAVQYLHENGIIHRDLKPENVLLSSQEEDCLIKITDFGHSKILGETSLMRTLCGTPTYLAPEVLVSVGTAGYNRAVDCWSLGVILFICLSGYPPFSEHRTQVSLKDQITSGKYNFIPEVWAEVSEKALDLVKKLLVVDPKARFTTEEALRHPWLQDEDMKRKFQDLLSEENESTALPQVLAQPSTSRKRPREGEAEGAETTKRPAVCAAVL

SW-620 [3] = assay: Radiosensitizing activity against human SW620 cells assessed as reduction in colony formation at 27 nM incubated after 14 days in the presence of 3 Gy irradiation by crystal violet staining based analysis; assay type: functional, cell-based; conditions: time 14.0 day
SW-620 [4] = assay: Antiproliferative activity against human SW620 cells assessed as reduction in colony formation at 27 nM measured after 14 days by crystal violet staining based microscopic analysis; assay type: functional, cell-based; conditions: time 14.0 day
[5] = target: T1, Serine-protein kinase ATM; assay: Inhibition of ATM phosphorylation in human SW620 cells with IR-induced DNA damage assessed as fold change in phosphorylated ATM protein level at 9 nM in the presence of 3 Gy irradiation by Western blot analysis relative to control; assay type: cell-based
[6] = target: Serine/threonine-protein kinase Chk2 (Homo sapiens) (UniProt O96017); assay: Inhibition of Chk2 phosphorylation in human SW620 cells with IR-induced DNA damage assessed as fold change in phosphorylated Chk2 protein level at 83 nM in the presence of 3 Gy irradiation by Western blot analysis relative to control; assay type: cell-based
[7] = target: Serine/threonine-protein kinase Chk2 (Homo sapiens) (UniProt O96017); assay: Inhibition of Chk2 phosphorylation in human SW620 cells with IR-induced DNA damage assessed as fold change in phosphorylated Chk2 protein level at 3 nM in the presence of 1.5 Gy irradiation by Western blot analysis relative to control; assay type: cell-based
SW-620 [8] = assay: Radiosensitizing activity against human SW620 cells assessed as reduction in colony formation at 9 nM incubated after 14 days in the presence of 3 Gy irradiation by crystal violet staining based analysis; assay type: functional, cell-based; conditions: time 14.0 day
[9] = target: T1, Serine-protein kinase ATM; assay: Inhibition of ATM phosphorylation in human SW620 cells with IR-induced DNA damage assessed as fold change in phosphorylated ATM protein level at 3 nM in the presence of 3 Gy irradiation by Western blot analysis relative to control; assay type: cell-based
[10] = target: Serine/threonine-protein kinase Chk2 (Homo sapiens) (UniProt O96017); assay: Inhibition of Chk2 phosphorylation in human SW620 cells with IR-induced DNA damage assessed as fold change in phosphorylated Chk2 protein level at 250 nM in the presence of 1.5 Gy irradiation by Western blot analysis relative to control; assay type: cell-based
[11] = target: Serine/threonine-protein kinase Chk2 (Homo sapiens) (UniProt O96017); assay: Inhibition of Chk2 phosphorylation in human SW620 cells with IR-induced DNA damage assessed as fold change in phosphorylated Chk2 protein level at 3 nM in the presence of 3 Gy irradiation by Western blot analysis relative to control; assay type: cell-based
SW-620 [12] = assay: Antiproliferative activity against human SW620 cells assessed as reduction in colony formation at 9 nM measured after 14 days by crystal violet staining based microscopic analysis; assay type: functional, cell-based; conditions: time 14.0 day
[13] = target: Serine/threonine-protein kinase Chk2 (Homo sapiens) (UniProt O96017); assay: Inhibition of Chk2 phosphorylation in human SW620 cells with IR-induced DNA damage assessed as fold change in phosphorylated Chk2 protein level at 27 nM in the presence of 1.5 Gy irradiation by Western blot analysis relative to control; assay type: cell-based
[14] = target: Serine/threonine-protein kinase Chk2 (Homo sapiens) (UniProt O96017); assay: Inhibition of Chk2 phosphorylation in human SW620 cells with IR-induced DNA damage assessed as fold change in phosphorylated Chk2 protein level at 27 nM in the presence of 3 Gy irradiation by Western blot analysis relative to control; assay type: cell-based
[15] = target: Serine/threonine-protein kinase Chk2 (Homo sapiens) (UniProt O96017); assay: Inhibition of Chk2 phosphorylation in human SW620 cells with IR-induced DNA damage assessed as fold change in phosphorylated Chk2 protein level at 250 nM in the presence of 3 Gy irradiation by Western blot analysis relative to control; assay type: cell-based
[16] = target: T1, Serine-protein kinase ATM; assay: Inhibition of ATM phosphorylation in human SW620 cells with IR-induced DNA damage assessed as fold change in phosphorylated ATM protein level at 83 nM in the presence of 3 Gy irradiation by Western blot analysis relative to control; assay type: cell-based
SW-620 [17] = assay: Radiosensitizing activity against human SW620 cells assessed as reduction in colony formation at 27 nM incubated after 14 days in the presence of 1.5 Gy irradiation by crystal violet staining based analysis; assay type: functional, cell-based; conditions: time 14.0 day
SW-620 [18] = assay: Radiosensitizing activity against human SW620 cells assessed as reduction in colony formation at 9 nM incubated after 14 days in the presence of 1.5 Gy irradiation by crystal violet staining based analysis; assay type: functional, cell-based; conditions: time 14.0 day
[19] = target: Serine/threonine-protein kinase Chk2 (Homo sapiens) (UniProt O96017); assay: Inhibition of Chk2 phosphorylation in human SW620 cells with IR-induced DNA damage assessed as fold change in phosphorylated Chk2 protein level at 9 nM in the presence of 3 Gy irradiation by Western blot analysis relative to control; assay type: cell-based
[20] = target: Serine/threonine-protein kinase Chk2 (Homo sapiens) (UniProt O96017); assay: Inhibition of CPT-11 induced Chk2 phosphorylation in human SW620 cells by SDS-PAGE based Westernblot analysis; assay type: cell-based
[21] = target: T1, Serine-protein kinase ATM; assay: Inhibition of ATM phosphorylation in human SW620 cells with IR-induced DNA damage assessed as fold change in phosphorylated ATM protein level at 250 nM in the presence of 3 Gy irradiation by Western blot analysis relative to control; assay type: cell-based
[22] = target: Serine/threonine-protein kinase Chk2 (Homo sapiens) (UniProt O96017); assay: Inhibition of CPT-11 induced Chk2 phosphorylation in human SW620 cells assessed as fold change in phosphorylated chk2 protein level at 30 nM by SDS-PAGE based Western blot analysis relative to control; assay type: cell-based
[23] = target: Serine/threonine-protein kinase Chk2 (Homo sapiens) (UniProt O96017); assay: Inhibition of CPT-11 induced Chk2 phosphorylation in human SW620 cells assessed as fold change in phosphorylated chk2 protein level at 3 nM by SDS-PAGE based Western blot analysis relative to control; assay type: cell-based
[24] = target: Serine/threonine-protein kinase Chk2 (Homo sapiens) (UniProt O96017); assay: Inhibition of CPT-11 induced Chk2 phosphorylation in human SW620 cells assessed as fold change in phosphorylated chk2 protein level at 1 nM by SDS-PAGE based Western blot analysis relative to control; assay type: cell-based
[25] = target: T1, Serine-protein kinase ATM; assay: Inhibition of ATM phosphorylation in human SW620 cells with IR-induced DNA damage assessed as fold change in phosphorylated ATM protein level at 27 nM in the presence of 3 Gy irradiation by Western blot analysis relative to control; assay type: cell-based
[26] = target: Serine/threonine-protein kinase Chk2 (Homo sapiens) (UniProt O96017); assay: Inhibition of Chk2 phosphorylation in human SW620 cells with IR-induced DNA damage assessed as fold change in phosphorylated Chk2 protein level at 83 nM in the presence of 1.5 Gy irradiation by Western blot analysis relative to control; assay type: cell-based
[27] = target: Serine/threonine-protein kinase Chk2 (Homo sapiens) (UniProt O96017); assay: Inhibition of Chk2 phosphorylation in human SW620 cells with IR-induced DNA damage assessed as fold change in phosphorylated Chk2 protein level at 9 nM in the presence of 1.5 Gy irradiation by Western blot analysis relative to control; assay type: cell-based

Compound: COc1ccc([C@H](C)n2nnc3cnc4ccc(-c5ccc(N)nc5)cc4c32)cc1
pIC50 [1]: 6.99

Compound: CC(C)n1c(=O)n(C)c2cnc3cc(F)c(-c4ccc(OCCCN5CCCCC5)nc4)cc3c21
fold change (FC) [2]: 1.6
Activity (SW-620 [3]): Active
Activity (SW-620 [4]): inactive
fold change (FC) [5]: 1.34
fold change (FC) [6]: 0.35
fold change (FC) [7]: 0.92
Activity (SW-620 [8]): Active
fold change (FC) [9]: 1.36
fold change (FC) [10]: 0.58
fold change (FC) [11]: 4.2
Activity (SW-620 [12]): inactive
fold change (FC) [13]: 1.2
fold change (FC) [14]: 0.6
fold change (FC) [15]: 0.25
fold change (FC) [16]: 0.8
Activity (SW-620 [17]): Active
Activity (SW-620 [18]): Active
fold change (FC) [19]: 1.8
inhibition [20]: Dose-Dependent Effect
fold change (FC) [21]: 0.61
fold change (FC) [22]: 0.56
fold change (FC) [23]: 1.9
fold change (FC) [24]: 2.5
fold change (FC) [25]: 1
fold change (FC) [26]: 1
fold change (FC) [27]: 0.92

Compound: CC(C)n1nnc2cnc3ccc(-c4ccc(N)nc4)cc3c21
pIC50 [1]: 7.70

Compound: C[C@H](c1ccccc1)n1nnc2cnc3ccc(-c4ccc(OCCCCN(C)C)nc4)cc3c21
pIC50 [1]: 8.00

Compound: C[C@H](c1ccccc1)n1nnc2cnc3ccc(-c4cccnc4)cc3c21
pIC50 [1]: 8.05

Compound: C[C@H](c1ccccc1)n1nnc2cnc3ccc(-c4ccc(C(F)(F)F)nc4)cc3c21
pIC50 [1]: 6.65

Compound: C[C@H](c1ccccc1)n1nnc2cnc3ccc(-c4ccc(N5CCN(C)CC5)nc4)cc3c21
pIC50 [1]: 8.22

Compound: C[C@H](c1ccccc1)n1nnc2cnc3ccc(-c4ccc(O)cc4)cc3c21
pIC50 [1]: 7.28

Compound: C[C@H](c1ccccc1)n1nnc2cnc3ccc(-c4ccc(OCCN(C)C)nc4)cc3c21
pIC50 [1]: 7.72

Compound: Nc1ccc(-c2ccc3ncc4nnn(Cc5ccccc5)c4c3c2)cn1
pIC50 [1]: 8.10

Compound: CNCCCOc1ccc(-c2ccc3ncc4nnn([C@H](C)c5ccccc5)c4c3c2)cn1
pIC50 [1]: 6.78

Second part, the compound after the results:

pIC50 [1]: 8.05
Compound: CC[C@H](c1ccccc1)n1nnc2cnc3ccc(-c4ccc(N)nc4)cc3c21

pIC50 [1]: 7.35
Compound: C[C@@H](c1ccccc1)n1nnc2cnc3ccc(-c4ccc(N)nc4)cc3c21

pIC50 [1]: 7.10
Compound: CC[C@@H](c1ccccc1)n1nnc2cnc3ccc(-c4ccc(N)nc4)cc3c21

pIC50 [1]: 8.40
Compound: C[C@H](c1cccc(F)c1)n1nnc2cnc3ccc(-c4ccc(N)nc4)cc3c21

pIC50 [1]: 7.46
Compound: Cc1ccc(-c2ccc3ncc4nnn([C@H](C)c5ccccc5)c4c3c2)cn1

pIC50 [1]: 6.78
Compound: C[C@H](c1ccccc1)n1nnc2cnc3ccc(-c4ccc(C#N)nc4)cc3c21

pIC50 [1]: 7.66
Compound: C[C@H](c1ccccc1)n1nnc2cnc3ccc(-c4ccnc(N)c4)cc3c21

pIC50 [1]: 7.89
Compound: COc1ccc(-c2ccc3ncc4nnn([C@H](C)c5ccccc5)c4c3c2)cn1
